For 1 molecule, Activity, IC50 and inhibition results are on record in ChEMBL document CHEMBL4251606, “Design and characterization of α-lipoic acyl shikonin ester twin drugs as tubulin and PDK1 dual inhibitors” (Eur J Med Chem, 2018).

Molecules are shown by their SMILES. Active and inactive are the calls of the source. The calls are words filed in the database; no cut-off is given here.

The test system of data set [1] is HeLa. Nature of the data set: Cell cycle arrest in human HeLa cells assessed as accumulation of cells at G1 phase at 2 uM after 24 hrs by propidium iodide staining-based FACScan flow cytometric analysis (reference value: 64.58%). Format: functional. (In general: A flow cytometer gives signals particle by particle.)
In data set [2] the test system is HeLa. Briefly: Antiproliferative activity against human HeLa cells after 24 hrs by MTT assay. It is filed as functional, cell-based. (In general: Tetrazolium dyes change colour on reduction, which living cells bring about.)
For data set [3], the system named is HeLa. Briefly: Cell cycle arrest in human HeLa cells assessed as accumulation of cells at S phase at 4 uM after 24 hrs by propidium iodide staining-based FACScan flow cytometric analysis (reference value: 20.45%). It is filed as functional.
The test system of data set [4] is HeLa. Nature of the data set: Cell cycle arrest in human HeLa cells assessed as accumulation of cells at S phase at 2 uM after 24 hrs by propidium iodide staining-based FACScan flow cytometric analysis (reference value: 20.45%). Format: functional.
Data set [5] relates to HeLa. Briefly: Cell cycle arrest in human HeLa cells assessed as accumulation of cells at S phase at 1 uM after 24 hrs by propidium iodide staining-based FACScan flow cytometric analysis (reference value: 20.45%). Format: functional.
The test system of data set [6] is HeLa. Nature of the data set: Cell cycle arrest in human HeLa cells assessed as accumulation of cells at G1 phase at 1 uM after 24 hrs by propidium iodide staining-based FACScan flow cytometric analysis (reference value: 64.58%). It is filed as functional.
Data set [7] concerns HeLa. Briefly: Cell cycle arrest in human HeLa cells assessed as accumulation of cells at G2/M phase at 4 uM after 24 hrs by propidium iodide staining-based FACScan flow cytometric analysis (reference value: 14.97%). It is filed as functional.
Another data set deals with HEK-293T. Nature of the data set: Antiproliferative activity against human 293T cells after 24 hrs by MTT assay. It is filed as cell-based.
Data set [8] deals with HeLa. Briefly: Cell cycle arrest in human HeLa cells assessed as accumulation of cells at G2/M phase at 2 uM after 24 hrs by propidium iodide staining-based FACScan flow cytometric analysis (reference value: 14.97%). Format: functional.
The subject of a further data set is HepG2. Nature of the data set: Antiproliferative activity against human HepG2 cells after 24 hrs by MTT assay. Format: functional, cell-based. The conditions noted are these: HepG2, 24 h.
In a further data set the test system is A549. Nature of the data set: Antiproliferative activity against human A549 cells after 24 hrs by MTT assay. It is filed as functional, cell-based. The conditions noted are these: A549, 24 h.
A further data set concerns L02. Nature of the data set: Antiproliferative activity against human LO2 cells after 24 hrs by MTT assay. The conditions noted are these: L02, 24 h. Format: cell-based.
The subject of data set [9] is HeLa. Briefly: Inhibition of microtubule polymerization in human HeLa cells at 4 uM after 24 hrs by rhodamine/DAPI staining-based confocal microscopic analysis. Format: cell-based.
In the next data set the test system is Mus musculus. Briefly: Toxicity in nude mouse xenografted with human HeLa cells assessed as loss in body weight at 1 mg/kg, ip administered once in every 2 days for 15 days. It is filed as organism-based. The conditions noted are these: in vivo.
Data set [10] has as its system HeLa. Briefly: Cell cycle arrest in human HeLa cells assessed as accumulation of cells at G1 phase at 4 uM after 24 hrs by propidium iodide staining-based FACScan flow cytometric analysis (reference value: 64.58%). It is filed as functional.
The subject of the next data set is MDA-MB-231. Nature of the data set: Antiproliferative activity against human MDA231 cells after 24 hrs by MTT assay. It is filed as functional, cell-based. The conditions noted are these: MDA-MB-231, 24 h.
Data set [11] concerns HeLa. Briefly: Antitumor activity against human HeLa cells xenografted in nude mouse assessed as reduction in tumor size at 1 mg/kg, ip administered once in every 2 days for 15 days relative to control. It is filed as functional, organism-based.
The test system of data set [12] is HeLa. Nature of the data set: Cell cycle arrest in human HeLa cells assessed as accumulation of cells at G2/M phase at 1 uM after 24 hrs by propidium iodide staining-based FACScan flow cytometric analysis (reference value: 14.97%). It is filed as functional.

As a reminder, the IC50 is the concentration that inhibits the measured activity by half. A low value points to inhibition by little substance. `CC(C)=CC[C@@H](O)C1=CC(=O)c2c(O)ccc(O)c2C1=O` [SHIKONIN]: the Activity in the data set on HeLa [1] was determined as 62.72%; with HeLa [3], 14.13%; in the data set on HeLa [4], 13.25%; in the data set on HeLa [5] it was 17.42%; in the data set on HeLa [6], 63.83%; in the data set with HeLa [7], 28.12%. Moreover, the Activity in the data set with HeLa [8] is 24.03%; in the data set with Mus musculus it was “Toxic”; in the data set with HeLa [10], 57.75%; with HeLa [12] it was 18.75%. For the same molecule, the IC50 was found to be 6.86 µM with HeLa [2]; 62.8 µM with HEK-293T; 6.92 µM in the data set on HepG2; 3.53 µM in the data set with A549; 3.41 µM in the data set with L02; 8.75 µM in the data set on MDA-MB-231. In addition, the inhibition result in the data set with HeLa [9] was “Active”. Also, the result in the data set on HeLa [11] was Active.
